ChEMBL document CHEMBL1126901, “2-Thio derivatives of dUrd and 5-fluoro-dUrd and their 5'-monophosphates: synthesis, interaction with tumor thymidylate synthase, and in vitro antitumor activity” (J Med Chem, 1993)

Assays:
[1] = system: NIH3T3; test: Inhibitory concentration of compound rwas calculated on 3T3 cells by [3H]Thd incorporation; assay type: functional, cell-based, Mus musculus
[2] = system: NIH3T3; test: Inhibitory concentration of compound was calculated on 3T3 cells by [14C]Leu incorporation; assay type: functional, cell-based, Mus musculus
[3] = system: NIH3T3; test: Inhibitory concentration of compound was calculated on 3T3 cells by using clonal assay; assay type: functional, cell-based, Mus musculus
[4] = system: NIH3T3; test: Inhibitory concentration was calculated on 3T3 cells by using growth assay; assay type: functional, cell-based, Mus musculus
[5] = system: L5178Y; test: Inhibitory concentration of compound was calculated on L5178Y cells by [14C]Leu incorporation; assay type: functional, cell-based, Mus musculus
[6] = system: L5178Y; test: Inhibitory concentration of compound was calculated on L5178Y cells by using clonal assay; assay type: functional, cell-based, Mus musculus
[7] = system: L5178Y; test: Inhibitory concentration of compound was calculated on L5178Y cells by using growth assay; assay type: functional, cell-based, Mus musculus
[8] = system: L5178Y; test: Inhibitory concentration of compound rwas calculated on L5178Y cells by [3H]Thd incorporation; assay type: functional, cell-based, Mus musculus
[9] = molecular target: Thymidylate synthase (Mus musculus) (UniProt P07607)
Description: The reaction rate(Ki'') of compound was measured for inactivation of L1210 Thymidylate Synthases

[10] = molecular target: Thymidylate synthase (Mus musculus) (UniProt P07607); remark: listed apart in the source
Description: The time dependent reaction (k2''(1/min)) of compound was measured for inactivation of Ehrlich Carcinoma Thymidylate Synthases

[11] = molecular target: Thymidylate synthase (Mus musculus) (UniProt P07607); remark: listed apart in the source
Description: The time dependent reaction (k2''(1/min)) of compound was measured for inactivation of L1210 Thymidylate Synthases

[12] = molecular target: Thymidylate synthase (Mus musculus) (UniProt P07607); remark: listed apart in the source
Description: The time dependent reaction (k2'(1/min)) of compound was measured for inactivation of Ehrlich Carcinoma Thymidylate Synthases

[13] = molecular target: Thymidylate synthase (Mus musculus) (UniProt P07607); remark: listed apart in the source
Description: The time dependent reaction (k2'(1/min)) of compound was measured for inactivation of L1210 Thymidylate Synthases

[14] = molecular target: Thymidylate synthase (Mus musculus) (UniProt P07607); remark: listed apart in the source
Description: The reaction rate(Ki'') of compound was measured for inactivation of Ehrlich Carcinoma Thymidylate Synthases

[15] = molecular target: Thymidylate synthase (Mus musculus) (UniProt P07607); remark: listed apart in the source
Description: The reaction rate(Ki') of compound was measured for inactivation of Ehrlich Carcinoma Thymidylate Synthases

[16] = molecular target: Thymidylate synthase (Mus musculus) (UniProt P07607); remark: listed apart in the source
Description: The reaction rate(Ki') of compound was measured for inactivation of L1210 Thymidylate Synthases

[17] = molecular target: T1, Thymidylate synthase (Mus musculus, UniProt P07607); test: Apparent Ki value was measured by competitive inhibition of Thymidylate Synthase from Ehrlich Carcinoma cells of mouse; assay type: cell-based
[18] = molecular target: T1, Thymidylate synthase; test: Apparent Ki value was measured by competitive inhibition of Thymidylate Synthase from L1210 cells of mouse; assay type: cell-based
[19] = molecular target: Thymidylate synthase (Mus musculus) (UniProt P07607); remark: listed apart in the source
Description: The time dependent reaction (k2'(1/min)) of compound was measured for inactivation of L1210 Thymidylate Synthase

[20] = molecular target: Thymidylate synthase (Mus musculus) (UniProt P07607); remark: listed apart in the source
Description: The time dependent reaction (k2''(1/min)) of compound was measured for inactivation of Ehrlich Carcinoma Thymidylate Synthase

[21] = molecular target: Thymidylate synthase (Mus musculus) (UniProt P07607); remark: listed apart in the source
Description: The time dependent reaction (k2''(1/min)) of compound was measured for inactivation of L1210 Thymidylate Synthase

[22] = molecular target: Thymidylate synthase (Mus musculus) (UniProt P07607); remark: listed apart in the source
Description: The reaction rate(Ki'') of compound was measured for inactivation of L1210 Thymidylate Synthase

[23] = molecular target: Thymidylate synthase (Mus musculus) (UniProt P07607); remark: listed apart in the source
Description: The reaction rate(Ki') of compound was measured for inactivation of L1210 Thymidylate Synthase

Sequence of Thymidylate synthase (Mus musculus) (P07607 whole entry, looked up): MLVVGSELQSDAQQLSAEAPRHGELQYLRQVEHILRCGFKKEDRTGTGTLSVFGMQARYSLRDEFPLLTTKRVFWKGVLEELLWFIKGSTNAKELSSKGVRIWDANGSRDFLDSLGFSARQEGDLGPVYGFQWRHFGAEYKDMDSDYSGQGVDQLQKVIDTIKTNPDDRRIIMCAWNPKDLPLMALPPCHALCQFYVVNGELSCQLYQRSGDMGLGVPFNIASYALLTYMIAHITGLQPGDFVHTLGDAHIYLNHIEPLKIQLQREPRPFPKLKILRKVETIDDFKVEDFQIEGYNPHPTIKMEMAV
T1 sequence (P07607 whole entry): as the sequence (P07607 whole entry, looked up) above

Row | IC50 ([5]; Mus musculus, L5178Y) [µM] | IC50 ([6]; Mus musculus, L5178Y) [µM] | IC50 ([8]; Mus musculus, L5178Y) [µM] | IC50 ([5]; l5178y) [µM] | IC50 ([6]; l5178y) [µM] | IC50 ([8]; l5178y) [µM] | Structure (SMILES) | IC50 ([1]; Mus musculus, NIH3T3) [µM] | IC50 ([2]; Mus musculus, NIH3T3) [µM] | IC50 ([3]; Mus musculus, NIH3T3) [µM] | IC50 ([4]; Mus musculus, NIH3T3) [µM] | IC50 ([7]; Mus musculus, L5178Y) [µM] | IC50 ([1]; nih3t3) [µM] | IC50 ([2]; nih3t3) [µM] | IC50 ([3]; nih3t3) [µM] | IC50 ([4]; nih3t3) [µM] | IC50 ([7]; l5178y) [µM] | k2' [10] [min⁻¹] | Ki'' [14] [µM] | Ki' [15] [µM] | also measured
1 | 1 | 4.5 | 1.4 | – | – | – | O=c1[nH]c(=S)n([C@H]2C[C@H](O)[C@@H](CO)O2)cc1F | 4 | 5 | 7 | 4 | 2 | – | – | – | – | – | – | – | – | –
2 | – | – | – | 0.009 | 0.02 | 0.015 | O=c1[nH]c(=O)n([C@H]2C[C@H](O)[C@@H](CO)O2)cc1F (stereo in doubt) [FLOXURIDINE] | – | – | – | – | – | 0.5 | 3.2 | 0.6 | 1 | 0.025 | – | – | – | –
3 | – | – | – | 2 | 5 | 4 | O=c1[nH]c(=O)n([C@H]2C[C@H](O)[C@@H](CO)O2)cc1F (stereo in doubt; 22) [FLOXURIDINE] | – | – | – | – | – | 60 | 250 | 60 | 150 | 5 | – | – | – | –
4 | 10 | 20 | 10 | – | – | – | O=c1[nH]c(=S)n([C@@H]2C[C@H](O)[C@@H](CO)O2)cc1F | 100 | 2000 | 500 | 400 | 25 | – | – | – | – | – | – | – | – | –
5 | – | – | – | – | – | – | O=c1[nH]c(=O)n([C@H]2C[C@H](O)[C@@H](COP(=O)(O)O)O2)cc1F | – | – | – | – | – | – | – | – | – | – | 0.18 | 0.071 | 0.0055 | Ki'' [9]: 0.02 µM; k2' [11]: 0.17 min⁻¹; k2'' [12]: 0.17 min⁻¹; k2'' [13]: 0.12 min⁻¹; Ki' [16]: 0.0018 µM
6 | – | – | – | – | – | – | O=c1[nH]c(=S)n(C2C[C@@H](OP(=O)(O)O)[C@@H](COP(=O)(O)O)O2)cc1F (stereo not given in full) | – | – | – | – | – | – | – | – | – | – | 0.36 | 0.049 | 0.079 | Ki [17]: 0.14 µM; Ki [18]: 0.07 µM; k2' [19]: 0.12 min⁻¹; k2'' [20]: 0.06 min⁻¹; k2'' [21]: 0.02 min⁻¹; Ki'' [22]: 0.046 µM; Ki' [23]: 0.041 µM
